Source: US20260224566A1, “Obicetrapib and Ezetimibe Combination Treatment and Fixed Dose Pharmaceutical Compositions” (NewAmsterdam Pharma B.V., priority 2023, published 2026)

Experiments:
[1] = tested on: participants currently receiving high-intensity statin therapy; experiment: ROSE2 Phase 2b clinical trial: safety and tolerability (adverse events, disposition); type: in vivo, human
Procedure: The safety and tolerability profile of obicetrapib 10 mg, both in combination with ezetimibe 10 mg and as monotherapy, will be assessed by clinical laboratory assessments (chemistry and hematology), vital signs, physical examinations, and the incidence of AEs.
An AE can therefore be any unfavorable and/or unintended sign (including an abnormal laboratory finding), symptom, or disease temporally associated with the use of an investigational medicinal product, whether or not related to the investigational medicinal product. All AEs, including observed or volunteered problems, complaints, or symptoms, are to be recorded on the appropriate eCRF.
AEs, which include clinical laboratory assessment variables, will be monitored and documented from the time of first dose of study treatment until completion of Visit 5. Participants should be instructed to report any AE that they experience to the Investigator, whether or not they think the event is due to study drug. Beginning at the date of the first dose of study treatment, Investigators should make an assessment for AEs at each visit and record the event on the appropriate AE eCRF.
The Investigator will assess the severity (intensity) of each AE as mild, moderate, or severe, and will also categorize each AE as to its potential relationship to study drug using the categories of yes or no.
An AE or adverse reaction is considered serious if, in the view of either the Investigator or Sponsor, it results in any of the following outcomes: • Death; • A life-threatening AE; Note: An AE or adverse reaction is considered “life-threatening” if, in view of either the Investigator or Sponsor, its occurrence places the participant at immediate risk of death. […] However, unexpected complications and/or prolongation of hospitalization that occur during elective surgery should be recorded as AEs and assessed for seriousness. Admission to the hospital for social or situational reasons (ie, no place to stay, live too far away to come for hospital visits, respite care) will not be considered inpatient hospitalizations. • A persistent or significant disability/incapacity or substantial disruption of the ability to conduct normal life functions; • A congenital anomaly/birth defect; or • An important medical event.
The Safety Population will include all participants who receive at least 1 dose of any study drug. Treatment classification will be based on the actual treatment received. The Safety Population will be the primary population used for the safety analyses.

[2] = molecular target: T1, CETP (Homo sapiens, UniProt P11597); experiment: Example 13: CETP activity and mass in ApoE*3-Leiden.CETP mice; type: in vivo, mouse
T1 construct: from tissue; host or cells: female ApoE*3-Leiden.CETP transgenic mice dosed in vivo
T1 sequence (P11597 18-493): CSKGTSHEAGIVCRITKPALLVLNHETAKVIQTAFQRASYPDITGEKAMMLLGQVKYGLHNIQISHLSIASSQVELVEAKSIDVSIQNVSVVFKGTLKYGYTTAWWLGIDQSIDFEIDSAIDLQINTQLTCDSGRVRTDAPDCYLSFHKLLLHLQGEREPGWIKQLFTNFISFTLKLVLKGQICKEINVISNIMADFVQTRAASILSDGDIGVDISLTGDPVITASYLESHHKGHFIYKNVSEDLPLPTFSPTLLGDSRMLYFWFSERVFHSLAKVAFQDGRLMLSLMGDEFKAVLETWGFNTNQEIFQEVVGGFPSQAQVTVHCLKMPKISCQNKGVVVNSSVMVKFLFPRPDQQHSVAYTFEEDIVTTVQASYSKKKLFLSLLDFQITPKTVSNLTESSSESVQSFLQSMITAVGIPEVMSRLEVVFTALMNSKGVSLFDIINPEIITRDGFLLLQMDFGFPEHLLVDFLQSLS
Procedure: The experimental protocol is illustrated in FIG. 82, with time (t) measured in weeks. Female ApoE*3-Leiden.CETP transgenic mice were fed a Western diet with 0.05% w/w cholesterol (equivalent to daily human intake) with (i) no drug (control), or the same diet containing (ii) obicetrapib alone (2 mg/kg/day), (iii) ezetimibe alone (on average 0.6 mg/kg/day) or (iv) the combination of obicetrapib and ezetimibe.

[3] = tested on: critical physiological systems; conditions: rats, doses up to 300 mg/kg; cited from earlier work
[4] = All Randomized Participants, obicetrapib 10 mg (N = 39), obicetrapib 10 mg + ezetimibe 10 mg (N = 40)
[5] = Safety Population, 10 mg each drug
[6] = Safety Population, 10 mg each drug, last line so labelled (r41)

CCOC(=O)N1c2ccc(C(F)(F)F)cc2[C@@H](N(Cc2cc(C(F)(F)F)cc(C(F)(F)F)c2)c2ncc(OCCCC(=O)O)cn2)C[C@H]1CC [obicetrapib, {4-[(2-{[3,5-bis(trifluoromethyl)benzyl] [(2R,4S)-1-(ethoxycarbonyl)-2-ethyl-6-(trifluoromethyl)-1,2,3,4-tetrahydroquinolin-4-yl]amino}pyrimidin-5-yl)oxy]butanoic acid}]
Completed the study (with PK), (%) [1, 4]: (94.9) % | Completed treatment, (%) [1, 4]: (92.3) % | Discontinued study early, (%) [1, 4]: (5.1) % | Discontinued treatment, (%) [1, 4]: (7.7) % | Primary reason for early study discontinuation: LOST TO FOLLOW-UP, (%) [1, 4]: (2.6) % | Primary reason for early study discontinuation: OTHER, (%) [1, 4]: (0.0) % | Primary reason for early study discontinuation: WITHDRAWAL BY SUBJECT, (%) [1, 4]: (0.0) % | Primary reason for treatment discontinuation: NON-COMPLIANCE WITH STUDY DRUG, (%) [1, 4]: (2.6) % | Primary reason for treatment discontinuation: OTHER, (%) [1, 4]: (0.0) % | Primary reason for treatment discontinuation: WITHDRAWAL BY SUBJECT, (%) [1, 4]: (0.0) % | Any TEAEs by maximum severity: Mild, e [1, 5]: 20 | Any TEAEs by maximum severity: Moderate, (%) [1, 5]: (7.7) % | Any TEAEs leading to death, (%) [1, 5]: (0.0) % | Any TEAEs leading to death, e [1, 5]: 0 | Any serious TEAEs (TESAEs), (%) [1, 5]: (5.1) % | Any serious TEAEs (TESAEs), e [1, 5]: 2 | Any study drug-related TEAEs by maximum severity: Mild, e [1, 5]: 4 | Any study drug-related TEAEs by maximum severity: Moderate, (%) [1, 5]: (5.1) % | Any study drug-related TEAEs by maximum severity: Severe, (%) [1, 5]: (5.1) % | Any study drug-related TEAEs leading to discontinuation of study drug, (%) [1, 5]: (5.1) % | Any study drug-related TEAEs, (%) [1, 5]: (2.6) % | Any study drug-related TESAEs, (%) [1, 5]: (2.6) % | Any study drug-related TESAEs, e [1, 5]: 1 | Any treatment-emergent AEs (TEAEs), e [1, 5]: 20 | Any TEAEs leading to discontinuation of study drug, (%) ([1]; Safety Population, 10 mg each drug, first line so labelled (r25)): (0.0) % | Any TEAEs leading to discontinuation of study drug, (%) [1, 6]: (0.0) % | Any TEAEs leading to discontinuation of study drug, e [1, 6]: 0 | cetp mass ([2]; FIG. 87B): without statistically significant changes | CETP activity, change ([2]; obicetrapib 2 mg/kg/day, ezetimibe on average 0.6 mg/kg/day in Western diet): −98% | adverse effect on critical physiological systems [3]: no adverse effect
